Measured values published in ChEMBL document CHEMBL5291721, “A preclinical secondary pharmacology resource illuminates target-adverse drug reaction associations of marketed drugs” (Nat Commun, 2023).

What was measured:
[1] = target: Gamma-aminobutyric acid receptor subunit alpha-1/alpha-2/beta-2/gamma-2 (Homo sapiens, UniProt P14867+P18507+P47869+P47870); format: functional, cell-based
[2] = target: T1, Glucocorticoid receptor (Homo sapiens, UniProt P04150); format: functional
T1 sequence (P04150 whole entry): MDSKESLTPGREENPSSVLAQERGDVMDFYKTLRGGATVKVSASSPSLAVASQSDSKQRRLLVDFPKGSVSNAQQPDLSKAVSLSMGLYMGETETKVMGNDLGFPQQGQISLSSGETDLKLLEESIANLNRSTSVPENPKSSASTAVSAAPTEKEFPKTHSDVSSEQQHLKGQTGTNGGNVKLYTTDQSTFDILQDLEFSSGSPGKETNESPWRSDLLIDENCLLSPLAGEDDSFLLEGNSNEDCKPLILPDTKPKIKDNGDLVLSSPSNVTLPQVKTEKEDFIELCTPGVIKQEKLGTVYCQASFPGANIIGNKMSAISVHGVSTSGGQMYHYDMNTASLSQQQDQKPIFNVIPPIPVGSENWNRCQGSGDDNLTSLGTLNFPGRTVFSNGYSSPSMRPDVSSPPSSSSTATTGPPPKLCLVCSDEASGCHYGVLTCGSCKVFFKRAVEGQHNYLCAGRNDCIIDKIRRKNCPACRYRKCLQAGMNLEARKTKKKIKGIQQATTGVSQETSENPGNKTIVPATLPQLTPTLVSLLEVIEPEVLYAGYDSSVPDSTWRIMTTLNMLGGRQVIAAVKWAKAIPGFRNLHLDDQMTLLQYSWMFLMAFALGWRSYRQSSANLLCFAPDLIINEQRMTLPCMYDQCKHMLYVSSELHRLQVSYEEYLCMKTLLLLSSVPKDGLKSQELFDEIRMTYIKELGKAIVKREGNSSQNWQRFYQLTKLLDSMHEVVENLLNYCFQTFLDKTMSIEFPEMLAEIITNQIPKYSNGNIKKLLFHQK

[3] = target: 5-hydroxytryptamine receptor 2B (Homo sapiens, UniProt P41595)
Chain of 5-hydroxytryptamine receptor 2B (P41595 whole entry): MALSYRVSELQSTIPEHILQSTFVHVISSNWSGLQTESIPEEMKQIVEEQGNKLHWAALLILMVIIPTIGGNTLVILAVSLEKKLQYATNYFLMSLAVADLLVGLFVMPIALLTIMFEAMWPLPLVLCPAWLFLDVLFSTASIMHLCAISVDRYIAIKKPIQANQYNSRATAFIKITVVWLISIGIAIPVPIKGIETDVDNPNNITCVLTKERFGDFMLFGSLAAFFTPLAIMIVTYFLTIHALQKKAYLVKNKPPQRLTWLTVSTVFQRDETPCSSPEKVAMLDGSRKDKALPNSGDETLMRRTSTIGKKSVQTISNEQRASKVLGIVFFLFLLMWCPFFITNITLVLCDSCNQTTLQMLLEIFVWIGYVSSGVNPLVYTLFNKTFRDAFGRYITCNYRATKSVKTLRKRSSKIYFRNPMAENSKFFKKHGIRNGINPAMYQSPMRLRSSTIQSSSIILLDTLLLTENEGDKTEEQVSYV

[4] = target: T2, Neuropeptide Y receptor type 2 (Homo sapiens, UniProt P49146)
T2 sequence (P49146 whole entry): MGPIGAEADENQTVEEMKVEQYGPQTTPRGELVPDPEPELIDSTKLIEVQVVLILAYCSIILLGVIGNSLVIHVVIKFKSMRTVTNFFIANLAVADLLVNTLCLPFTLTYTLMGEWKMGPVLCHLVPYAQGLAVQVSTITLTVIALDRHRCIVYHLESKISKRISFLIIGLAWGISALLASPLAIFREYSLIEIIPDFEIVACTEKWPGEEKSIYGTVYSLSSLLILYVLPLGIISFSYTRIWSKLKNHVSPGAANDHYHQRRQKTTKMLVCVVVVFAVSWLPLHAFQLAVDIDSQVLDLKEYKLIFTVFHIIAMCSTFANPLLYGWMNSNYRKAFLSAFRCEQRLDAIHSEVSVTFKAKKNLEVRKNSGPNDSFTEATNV

[5] = target: Substance-P receptor (Homo sapiens, UniProt P25103)
Chain of Substance-P receptor (P25103 whole entry): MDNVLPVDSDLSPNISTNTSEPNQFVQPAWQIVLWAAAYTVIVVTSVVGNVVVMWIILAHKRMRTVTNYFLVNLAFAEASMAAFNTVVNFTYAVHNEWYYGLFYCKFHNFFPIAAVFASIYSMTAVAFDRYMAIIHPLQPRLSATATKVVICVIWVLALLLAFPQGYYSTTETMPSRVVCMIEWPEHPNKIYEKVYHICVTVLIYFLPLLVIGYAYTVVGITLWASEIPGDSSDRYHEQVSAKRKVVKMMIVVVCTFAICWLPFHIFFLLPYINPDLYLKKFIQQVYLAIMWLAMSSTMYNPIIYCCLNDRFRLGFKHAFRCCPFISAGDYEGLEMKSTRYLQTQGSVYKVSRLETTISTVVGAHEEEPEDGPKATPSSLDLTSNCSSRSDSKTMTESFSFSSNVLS

[6] = target: 5-hydroxytryptamine receptor 6 (Homo sapiens, UniProt P50406)
Chain of 5-hydroxytryptamine receptor 6 (P50406 whole entry): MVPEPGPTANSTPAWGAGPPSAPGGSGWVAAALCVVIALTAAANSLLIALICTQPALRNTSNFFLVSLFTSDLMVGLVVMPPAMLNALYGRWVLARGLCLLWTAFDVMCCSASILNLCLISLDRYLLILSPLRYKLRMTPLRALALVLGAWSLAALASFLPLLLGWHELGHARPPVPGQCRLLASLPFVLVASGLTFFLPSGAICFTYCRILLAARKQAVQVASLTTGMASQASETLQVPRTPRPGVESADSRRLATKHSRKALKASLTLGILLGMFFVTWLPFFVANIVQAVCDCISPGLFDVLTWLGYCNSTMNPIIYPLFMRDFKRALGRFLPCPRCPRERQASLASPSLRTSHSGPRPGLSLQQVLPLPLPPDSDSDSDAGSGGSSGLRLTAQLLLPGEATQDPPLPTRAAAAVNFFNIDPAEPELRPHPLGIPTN

[7] = target: T3, Peroxisome proliferator-activated receptor gamma (Homo sapiens, UniProt P37231); format: functional
T3 sequence (P37231 whole entry): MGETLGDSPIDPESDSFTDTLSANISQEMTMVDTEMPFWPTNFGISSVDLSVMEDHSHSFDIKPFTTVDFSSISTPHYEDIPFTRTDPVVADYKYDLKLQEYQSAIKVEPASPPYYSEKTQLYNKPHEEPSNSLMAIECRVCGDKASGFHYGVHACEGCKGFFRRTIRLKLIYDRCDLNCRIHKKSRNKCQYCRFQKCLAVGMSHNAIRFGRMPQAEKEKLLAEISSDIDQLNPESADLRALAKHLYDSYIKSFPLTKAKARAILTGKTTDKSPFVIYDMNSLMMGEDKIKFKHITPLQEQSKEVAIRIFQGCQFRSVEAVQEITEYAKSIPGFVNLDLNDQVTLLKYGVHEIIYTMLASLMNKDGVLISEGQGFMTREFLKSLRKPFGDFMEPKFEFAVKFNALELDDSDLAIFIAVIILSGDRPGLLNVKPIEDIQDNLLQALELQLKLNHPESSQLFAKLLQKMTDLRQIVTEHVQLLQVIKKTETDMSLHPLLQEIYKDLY

[8] = target: T4, B1 bradykinin receptor (Homo sapiens, UniProt P46663)
T4 sequence (P46663 whole entry): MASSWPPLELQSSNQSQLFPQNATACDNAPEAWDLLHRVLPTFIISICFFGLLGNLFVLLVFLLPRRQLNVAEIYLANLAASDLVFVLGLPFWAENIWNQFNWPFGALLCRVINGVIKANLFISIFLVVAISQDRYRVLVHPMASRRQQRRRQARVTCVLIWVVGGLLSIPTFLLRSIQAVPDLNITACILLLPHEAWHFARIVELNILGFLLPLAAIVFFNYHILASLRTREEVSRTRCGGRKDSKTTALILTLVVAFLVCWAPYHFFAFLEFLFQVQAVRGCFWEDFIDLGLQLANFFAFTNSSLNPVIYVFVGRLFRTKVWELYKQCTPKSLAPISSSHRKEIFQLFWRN

[9] = target: T3, Peroxisome proliferator-activated receptor gamma; format: functional; remark: listed apart in the source
[10] = target: T1, Glucocorticoid receptor
[11] = target: Mu-type opioid receptor (Homo sapiens, UniProt P35372); experiment: biochemical; format: functional
Chain of Mu-type opioid receptor (P35372 whole entry): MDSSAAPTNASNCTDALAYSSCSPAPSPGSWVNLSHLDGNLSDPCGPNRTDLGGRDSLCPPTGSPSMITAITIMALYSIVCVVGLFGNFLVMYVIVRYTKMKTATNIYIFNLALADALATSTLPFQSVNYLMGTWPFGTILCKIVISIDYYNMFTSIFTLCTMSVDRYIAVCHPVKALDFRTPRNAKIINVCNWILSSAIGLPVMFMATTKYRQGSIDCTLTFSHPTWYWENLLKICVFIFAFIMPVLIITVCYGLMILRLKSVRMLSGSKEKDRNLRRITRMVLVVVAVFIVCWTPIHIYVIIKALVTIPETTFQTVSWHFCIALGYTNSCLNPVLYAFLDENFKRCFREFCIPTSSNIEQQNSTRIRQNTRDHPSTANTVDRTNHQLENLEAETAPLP

[12] = target: Beta-3 adrenergic receptor (Homo sapiens, UniProt P13945)
Chain of Beta-3 adrenergic receptor (P13945 whole entry): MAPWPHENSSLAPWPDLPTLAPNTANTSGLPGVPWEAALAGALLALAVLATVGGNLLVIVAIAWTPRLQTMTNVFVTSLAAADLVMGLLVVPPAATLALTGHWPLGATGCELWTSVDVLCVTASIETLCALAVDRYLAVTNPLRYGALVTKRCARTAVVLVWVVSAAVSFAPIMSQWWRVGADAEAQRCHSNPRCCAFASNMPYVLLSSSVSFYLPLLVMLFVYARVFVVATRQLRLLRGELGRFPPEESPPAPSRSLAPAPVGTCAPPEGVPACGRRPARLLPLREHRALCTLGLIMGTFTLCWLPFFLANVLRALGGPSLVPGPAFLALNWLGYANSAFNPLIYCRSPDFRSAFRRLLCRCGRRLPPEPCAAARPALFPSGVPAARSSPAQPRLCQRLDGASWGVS
Further: assay procedure not described here.

Chain of Gamma-aminobutyric acid receptor subunit alpha-1/alpha-2/beta-2/gamma-2 (P14867 whole entry): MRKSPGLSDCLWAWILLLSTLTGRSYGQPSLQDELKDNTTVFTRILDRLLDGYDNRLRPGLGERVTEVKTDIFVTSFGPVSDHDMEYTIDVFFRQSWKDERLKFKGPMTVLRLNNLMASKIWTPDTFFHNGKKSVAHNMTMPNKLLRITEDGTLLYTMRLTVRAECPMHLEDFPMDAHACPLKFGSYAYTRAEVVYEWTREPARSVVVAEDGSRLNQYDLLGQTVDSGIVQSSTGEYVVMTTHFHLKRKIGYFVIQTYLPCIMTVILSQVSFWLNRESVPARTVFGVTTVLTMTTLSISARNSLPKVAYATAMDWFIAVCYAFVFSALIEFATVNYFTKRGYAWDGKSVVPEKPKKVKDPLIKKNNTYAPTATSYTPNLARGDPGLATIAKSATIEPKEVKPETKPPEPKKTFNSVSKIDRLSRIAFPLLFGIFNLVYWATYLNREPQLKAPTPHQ
Chain of Gamma-aminobutyric acid receptor subunit alpha-1/alpha-2/beta-2/gamma-2 (P47870 whole entry): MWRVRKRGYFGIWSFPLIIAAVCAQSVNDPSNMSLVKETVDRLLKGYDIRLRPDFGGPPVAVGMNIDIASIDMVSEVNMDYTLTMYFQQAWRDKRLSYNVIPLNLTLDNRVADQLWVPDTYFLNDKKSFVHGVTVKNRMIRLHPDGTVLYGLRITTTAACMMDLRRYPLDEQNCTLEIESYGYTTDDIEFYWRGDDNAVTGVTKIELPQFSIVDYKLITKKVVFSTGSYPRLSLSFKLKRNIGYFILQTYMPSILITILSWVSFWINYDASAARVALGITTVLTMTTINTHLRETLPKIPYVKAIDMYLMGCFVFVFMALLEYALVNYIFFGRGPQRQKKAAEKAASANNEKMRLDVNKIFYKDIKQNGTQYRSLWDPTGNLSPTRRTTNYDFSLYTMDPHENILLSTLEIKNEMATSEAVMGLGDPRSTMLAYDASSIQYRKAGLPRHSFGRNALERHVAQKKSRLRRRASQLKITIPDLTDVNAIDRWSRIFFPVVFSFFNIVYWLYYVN
Chain of Gamma-aminobutyric acid receptor subunit alpha-1/alpha-2/beta-2/gamma-2 (P18507 whole entry): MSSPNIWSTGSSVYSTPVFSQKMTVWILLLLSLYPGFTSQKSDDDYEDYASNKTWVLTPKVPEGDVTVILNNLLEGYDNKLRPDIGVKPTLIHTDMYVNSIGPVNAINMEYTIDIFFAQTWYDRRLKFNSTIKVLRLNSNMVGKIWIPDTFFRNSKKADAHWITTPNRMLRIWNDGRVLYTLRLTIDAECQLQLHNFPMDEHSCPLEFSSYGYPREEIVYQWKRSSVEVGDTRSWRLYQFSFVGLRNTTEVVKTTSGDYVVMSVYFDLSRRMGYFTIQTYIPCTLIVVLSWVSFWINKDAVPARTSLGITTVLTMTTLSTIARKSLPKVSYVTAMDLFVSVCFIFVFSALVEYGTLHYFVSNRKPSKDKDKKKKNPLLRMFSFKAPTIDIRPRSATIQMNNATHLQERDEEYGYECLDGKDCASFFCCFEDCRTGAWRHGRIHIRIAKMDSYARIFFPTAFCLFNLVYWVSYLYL
Chain of Gamma-aminobutyric acid receptor subunit alpha-1/alpha-2/beta-2/gamma-2 (P47869 whole entry): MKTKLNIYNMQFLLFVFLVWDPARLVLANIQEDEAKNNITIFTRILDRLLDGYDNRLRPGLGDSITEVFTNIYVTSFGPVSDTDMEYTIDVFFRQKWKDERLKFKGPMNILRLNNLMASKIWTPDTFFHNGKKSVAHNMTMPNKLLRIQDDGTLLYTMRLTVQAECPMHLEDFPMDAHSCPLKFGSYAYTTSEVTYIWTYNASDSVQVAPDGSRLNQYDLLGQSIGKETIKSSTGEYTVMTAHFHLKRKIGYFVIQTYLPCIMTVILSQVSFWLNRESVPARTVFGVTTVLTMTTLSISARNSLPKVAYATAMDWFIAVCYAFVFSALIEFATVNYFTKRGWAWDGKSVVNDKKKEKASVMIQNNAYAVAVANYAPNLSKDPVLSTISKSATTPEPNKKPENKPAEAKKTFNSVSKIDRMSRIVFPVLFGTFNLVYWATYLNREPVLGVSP

SMILES | AC50 [1] | AC50 [2] | AC50 [3] | AC50 [4] | AC50 [5] | AC50 [6] | AC50 [7] | AC50 [8] | AC50 [9] | AC50 [10] | AC50 [11] | AC50 [12]
N[C@@H](CC(=O)N1CCn2c(nnc2C(F)(F)F)C1)Cc1cc(F)c(F)cc1F [SITAGLIPTIN] | > 30 µM | > 30 µM | > 10 µM | > 10 µM | > 10 µM | > 10 µM | > 30 µM | > 10 µM | > 30 µM |  |  | 
C=CC[C@@H]1/C=C(\C)C[C@H](C)C[C@H](OC)[C@H]2O[C@@](O)(C(=O)C(=O)N3CCCC[C@H]3C(=O)O[C@H](/C(C)=C/[C@@H]3CC[C@@H](O)[C@H](OC)C3)[C@H](C)[C@@H](O)CC1=O)[C@H](C)C[C@@H]2OC [TACROLIMUS ANHYDROUS] | > 30 µM | > 30 µM | > 10 µM | > 30 µM | > 10 µM | > 10 µM | > 30 µM | > 30 µM | > 30 µM | > 30 µM | > 30 µM | 12.2 µM
